# According to ChEMBL document CHEMBL1201862, “PubChem BioAssay data set” (2004):
# Several values for one entry are separate records, joined by “and”; a condition that tells them apart may be missing. Identical values can stand only once.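 Interpolation was linear, between the two tested concentrations surrounding the appropriate level; five concentrations were tested over 48 hours in 96-well plates. GI50: concentration for 50% inhibition of growth.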 Activity calls are given as the source filed them. No stated cut-off is given here; in the data, active = GI50 up to about 1.1 µM and inactive = higher.
# Tests used:
# Assay in all cases: NCI tumour cell line growth inhibition, 48 h
# HOP-62 = system: HOP-62
# KM-20L2 = system: KM-20L2
# HL-60 = system: HL-60
# NCI-H460 = system: NCI-H460
# M19-MEL = system: M19-MEL
# ACHN = system: ACHN
# MOLT-4 = system: MOLT-4
# 786-0 = system: 786-0
# DMS-273 = system: DMS-273
# LOX IMVI = system: LOX IMVI
# SK-MEL-2 = system: SK-MEL-2
# SF-295 = system: SF-295
# SW-620 = system: SW-620
# EKVX = system: EKVX
# OVCAR-8 = system: OVCAR-8
# OVCAR-5 = system: OVCAR-5
# IGROV-1 = system: IGROV-1
# NCI-H23 = system: NCI-H23
# SNB-75 = system: SNB-75
# A549 = system: A549
# HOP-18 = system: HOP-18
# NCI-H226 = system: NCI-H226
# SK-OV-3 = system: SK-OV-3
# SK-MEL-5 = system: SK-MEL-5
# HCT-15 = system: HCT-15
# HCC 2998 = system: HCC 2998
# SK-MEL-28 = system: SK-MEL-28
# RXF 631 = system: RXF 631
# UACC-257 = system: UACC-257
# A498 = system: A498
# RXF 393 = system: RXF 393
# DLD-1 = system: DLD-1
# SF-268 = system: SF-268
# HOP-92 = system: HOP-92
# NCI/ADR-RES = system: NCI/ADR-RES
# KM12 = system: KM12
# SN12C = system: SN12C
# COLO 205 = system: COLO 205
# U-251 = system: U-251
# HCT-116 = system: HCT-116
# SNB-19 = system: SNB-19
# RPMI-8226 = system: RPMI-8226
# HT-29 = system: HT-29
# K562 = system: K562
# Malme-3M = system: Malme-3M
# NCI-H522 = system: NCI-H522
# XF498 = system: XF498
# UO-31 = system: UO-31
# SF-539 = system: SF-539
# OVCAR-3 = system: OVCAR-3
# TK-10 = system: TK-10
# DMS-114 = system: DMS-114
# UACC-62 = system: UACC-62
# CCRF-CEM = system: CCRF-CEM
# LXFL 529 = system: LXFL 529
# M14 = system: M14
# SNB-78 = system: SNB-78
# OVCAR-4 = system: OVCAR-4
# CAKI-1 = system: CAKI-1
smiles,measurement,setting,value
COC1=C(C)C(=O)C2=C(C1=O)C(CO)N1C(C#N)C3CC4C(C1C2N1CCOC41)N3C (configuration not stated),GI50,HOP-62,270 nM (active) and 166 nM (active)
same,GI50,KM-20L2,0.0617 µM (active)
same,GI50,HL-60,0.0133 µM (active)
same,GI50,NCI-H460,90.8 nM (active) and 150 nM (active)
same,GI50,M19-MEL,0.0492 µM (active)
same,GI50,ACHN,64.1 nM (active) and 38.8 nM (active)
same,GI50,MOLT-4,0.0128 µM (active)
same,GI50,786-0,20 nM (active) and 26.8 nM (active)
same,GI50,DMS-273,0.02 µM (active)
same,GI50,LOX IMVI,11.6 nM (active) and < 14.1 nM (active)
same,GI50,SK-MEL-2,15.8 nM (active) and 19.4 nM (active)
same,GI50,SF-295,292 nM (active) and 179 nM (active)
same,GI50,SW-620,< 14.6 nM (active) and 16.4 nM (active)
same,GI50,EKVX,314 nM (active) and 305 nM (active)
same,GI50,OVCAR-8,30.3 nM (active) and 19.3 nM (active)
same,GI50,OVCAR-5,262 nM (active) and 241 nM (active)
same,GI50,IGROV-1,45.1 nM (active) and 32.4 nM (active)
same,GI50,NCI-H23,35.2 nM (active) and 39.1 nM (active)
same,GI50,SNB-75,20.6 nM (active) and 39.5 nM (active)
same,GI50,A549,354 nM (active) and 321 nM (active)
same,GI50,HOP-18,0.132 µM (active)
same,GI50,NCI-H226,99.3 nM (active) and 57.9 nM (active)
same,GI50,SK-OV-3,164 nM (active) and 261 nM (active)
same,GI50,SK-MEL-5,50.7 nM (active) and 29.9 nM (active)
same,GI50,HCT-15,< 0.01 µM and 0.0144 µM
same,GI50,HCC 2998,72.4 nM (active) and 60.3 nM (active)
same,GI50,SK-MEL-28,51.8 nM (active) and 52 nM (active)
same,GI50,RXF 631,0.167 µM (active)
same,GI50,UACC-257,26.2 nM (active) and 27.7 nM (active)
same,GI50,A498,0.146 µM (active)
same,GI50,RXF 393,20.9 nM (active) and 20.6 nM (active)
same,GI50,DLD-1,0.00706 µM (active)
same,GI50,SF-268,78.5 nM (active) and 85.9 nM (active)
same,GI50,HOP-92,24.1 nM (active) and < 16.9 nM (active)
same,GI50,NCI/ADR-RES,22.6 nM (active) and 31.5 nM (active)
same,GI50,KM12,58.8 nM (active) and 80.7 nM (active)
CC1=C(C(=O)Nc2ccccc2C)C(c2ccc(N(C)C)cc2)C(C(=O)Nc2ccccc2C)=C(C)N1,GI50,HOP-62,28.6 µM (inactive)
same,GI50,SN12C,83.6 µM (inactive)
same,GI50,KM-20L2,> 100 µM (inactive)
same,GI50,HL-60,19 µM (inactive)
same,GI50,NCI-H460,63.8 µM (inactive)
same,GI50,M19-MEL,> 100 µM (inactive)
same,GI50,ACHN,67.6 µM (inactive)
same,GI50,COLO 205,> 100 µM (inactive)
same,GI50,U-251,> 100 µM (inactive)
same,GI50,MOLT-4,26.8 µM (inactive)
same,GI50,HCT-116,55.3 µM (inactive)
same,GI50,786-0,72.3 µM (inactive)
same,GI50,SNB-19,> 100 µM (inactive)
same,GI50,RPMI-8226,17.1 µM (inactive)
same,GI50,DMS-273,64.9 µM (inactive)
same,GI50,LOX IMVI,56.8 µM (inactive)
same,GI50,SK-MEL-2,36.2 µM (inactive)
same,GI50,SF-295,> 100 µM (inactive)
same,GI50,SW-620,51.8 µM (inactive)
same,GI50,EKVX,> 100 µM (inactive)
same,GI50,OVCAR-8,88.5 µM (inactive)
same,GI50,OVCAR-5,> 100 µM (inactive)
same,GI50,IGROV-1,> 100 µM (inactive)
same,GI50,HT-29,> 100 µM (inactive)
same,GI50,K562,26.2 µM (inactive)
same,GI50,Malme-3M,82.6 µM (inactive)
same,GI50,NCI-H23,58.7 µM (inactive)
same,GI50,A549,94 µM (inactive)
same,GI50,NCI-H522,37.8 µM (inactive)
same,GI50,NCI-H226,> 100 µM (inactive)
same,GI50,XF498,22.6 µM (inactive)
same,GI50,SK-OV-3,> 100 µM (inactive)
same,GI50,SK-MEL-5,38.5 µM (inactive)
same,GI50,HCT-15,67.9 µM
same,GI50,HCC 2998,34.5 µM (inactive)
same,GI50,SK-MEL-28,74.8 µM (inactive)
same,GI50,RXF 631,56.4 µM (inactive)
same,GI50,UACC-257,71.6 µM (inactive)
same,GI50,A498,> 100 µM (inactive)
same,GI50,UO-31,55.2 µM (inactive)
same,GI50,SF-539,> 100 µM (inactive)
same,GI50,RXF 393,35.5 µM (inactive)
same,GI50,OVCAR-3,> 100 µM (inactive)
same,GI50,DLD-1,45.9 µM (inactive)
same,GI50,SF-268,70.5 µM (inactive)
same,GI50,TK-10,> 100 µM (inactive)
same,GI50,DMS-114,48.4 µM (inactive)
same,GI50,UACC-62,44.3 µM (inactive)
same,GI50,KM12,48.4 µM (inactive)
same,GI50,CCRF-CEM,31.8 µM (inactive)
O=S(=O)(SCCCCSS(=O)(=O)c1ccc(Cl)cc1)c1ccc(Cl)cc1,GI50,HOP-62,20.1 µM (inactive)
same,GI50,SN12C,9.23 µM (inactive)
same,GI50,KM-20L2,18 µM (inactive)
same,GI50,HL-60,3.24 µM (inactive)
same,GI50,NCI-H460,14.4 µM (inactive)
same,GI50,M19-MEL,14.8 µM (inactive)
same,GI50,ACHN,16.3 µM (inactive)
same,GI50,COLO 205,14.9 µM (inactive)
same,GI50,U-251,8.36 µM (inactive)
same,GI50,MOLT-4,2.73 µM (inactive)
same,GI50,HCT-116,11 µM (inactive)
same,GI50,786-0,9.68 µM (inactive)
same,GI50,SNB-19,10.2 µM (inactive)
same,GI50,RPMI-8226,4.39 µM (inactive)
same,GI50,DMS-273,10.3 µM (inactive)
same,GI50,LOX IMVI,3.39 µM (inactive)
same,GI50,LXFL 529,12.2 µM (inactive)
same,GI50,SK-MEL-2,14.9 µM (inactive)
same,GI50,SF-295,3.92 µM (inactive)
same,GI50,SW-620,9.46 µM (inactive)
same,GI50,EKVX,4.67 µM (inactive)
same,GI50,OVCAR-8,12.2 µM (inactive)
same,GI50,OVCAR-5,16.7 µM (inactive)
same,GI50,IGROV-1,5.2 µM (inactive)
same,GI50,HT-29,17.3 µM (inactive)
same,GI50,K562,20 µM (inactive)
same,GI50,Malme-3M,15.4 µM (inactive)
same,GI50,NCI-H23,10.3 µM (inactive)
same,GI50,SNB-75,11.4 µM (inactive)
same,GI50,A549,13.5 µM (inactive)
same,GI50,HOP-18,13.6 µM (inactive)
same,GI50,NCI-H522,5.06 µM (inactive)
same,GI50,M14,14.6 µM (inactive)
same,GI50,SK-OV-3,15.3 µM (inactive)
same,GI50,SK-MEL-5,16.7 µM (inactive)
same,GI50,HCT-15,13.4 µM
same,GI50,HCC 2998,18.7 µM (inactive)
same,GI50,SK-MEL-28,17.8 µM (inactive)
same,GI50,RXF 631,8.2 µM (inactive)
same,GI50,UACC-257,16.6 µM (inactive)
same,GI50,SNB-78,18.6 µM (inactive)
same,GI50,A498,16.6 µM (inactive)
same,GI50,UO-31,9.04 µM (inactive)
same,GI50,OVCAR-4,15.1 µM (inactive)
same,GI50,SF-539,12.4 µM (inactive)
same,GI50,RXF 393,16.7 µM (inactive)
same,GI50,OVCAR-3,14.7 µM (inactive)
same,GI50,DLD-1,13.8 µM (inactive)
same,GI50,SF-268,10.5 µM (inactive)
same,GI50,CAKI-1,12.7 µM (inactive)
same,GI50,TK-10,21.3 µM (inactive)
same,GI50,DMS-114,6.67 µM (inactive)
same,GI50,HOP-92,8.51 µM (inactive)
same,GI50,UACC-62,12.2 µM (inactive)
same,GI50,KM12,9.68 µM (inactive)
same,GI50,CCRF-CEM,1.85 µM (inactive)
